Experiments:
[1] = system: Choline Acetyltransferase (ChAT) mRNA; assay: Measurement of choline acetyltransferase (ChAT) mRNA expression levels in the rat septal area; format: in vivo; conditions: po, SD male rats, medial septum, 24 hours after administration, read-out: Amount (%) increased from the amount of ChAT mRNA expression levels in the vehicle administration group; for change in vivo at 3 mg/kg: 3 mg/kg orally; for change in vivo at 1 mg/kg: 1 mg/kg orally
Description: Measurement of Choline Acetyltransferase (ChAT) mRNA Expression Levels in the Rat Septal Area (1) Compound Administration
In this study, Sprague-Dawley male rats (Charles River Laboratories Japan, Inc.) with a body weight of about 250 to 350 g were used. The test compound was dissolved in 0.01 mol/L hydrochloric acid, and orally administered.
At 24 hours after the administration of the compound, the whole brain tissue was collected under pentobarbital anesthesia. The medial septum was isolated from whole brain on ice and frozen with liquid nitrogen, and then stored at −80° C.
(3) Measurement of ChAT mRNA Expression Levels
For RNA purification, RNeasy™ Plus Mini Kit (#74136: QIAGEN) was used in this study. RNA purification was performed by the method described in the kit After RNA purification, the total RNA concentration was measured by using QIAxpert Instrument (QIAGEN). cDNA was synthesized using SuperScript™ VILO™ cDNA Synthesis Kit (#11754: Thermo Fisher Scientific). The synthesis of cDNA was performed by the method described in the kit. The synthesized cDNA was diluted 4 times with RNase free water, and the diluted cDNA solution was used as a sample. Taqman™ Universal PCR Master Mix (#4304437: Thermo Fisher Scientific), Taqman™ Gene Expression Assays, INVENTORIED (#4331182: Thermo Fisher Scientific), RNase free water, and the cDNA solution were mixed in amounts of 10 μL, 1 μL, 4 μL, and 5 μL, respectively, and the resulting mixture was used as a measurement sample solution. Quantitative polymerase chain reaction (qPCR) was conducted using ABI PRISM™ 7900HT (Thermo Fisher Scientific) by a fluorescence probe method. Analysis was performed by SDS 2.4 (Thermo Fisher Scientific). The results were calculated by the percentage of the amount of ChAT mRNA expression levels in the compound administration group increased from the amount of ChAT mRNA expression levels in the vehicle administration group.

[2] = system: Rat primary septal neuron culture; assay: Measurement of acetylcholine (ACh) release in the rat primary septal neuron culture system; format: cell-based; conditions: 24 h, rat primary septal neurons, with NGF, ACh release measured by HPLC one day after compound addition, read-out: Concentration (μM) showing a 20% or more increase from the amount of ACh in the control group
Description: Measurement of Acetylcholine (ACh) Release in the Rat Primary Septal Neuron Culture System
(1) Rat Primary Septal Neuron Culture
The septal area was isolated from Sprague-Dawley (SD) rats (Charles River Laboratories Japan, Inc.) at a fetal age of 18 days, and cultured. Specifically, fetuses were removed from pregnant rats under isoflurane anesthesia. The brain was extracted from each fetus, and immersed in ice-cooled L-15 medium (11415-064, Thermo Fisher Scientific). The septal area was dissected from the extracted brain under a stereoscopic microscope. The dissected septal area was treated in 0.25% trypsin (15050-065, Thermo Fisher Scientific) and 0.01% DNase (D5025-150KU, Sigma) at 37° C. for 30 minutes, thereby dispersing the cells. In this case, the enzyme reaction was terminated by adding inactivated horse serum (26050-088, Thermo Fisher Scientific). The enzyme-treated solution was centrifuged at 1000 rpm for 3 minutes, and the supernatant was removed. A medium in an amount of 10 mL was added to the obtained cell mass. The medium used was Dulbecco's Modified Eagle's Medium (044-29765, WAKO) supplemented with N2 supplement (17502-048, Thermo Fisher Scientific), 1 mM sodium pyruvate (11360-070, Thermo Fisher Scientific), and Penicillin-Streptomycin (15140-1221, Thermo Fisher Scientific). The cells of the cell mass to which the medium was added were redispersed by gentle pipetting, and then centrifuged again at 1000 rpm for 3 minutes, and the supernatant was removed. The medium in an amount of 10 mL was added to the obtained cell mass, and the cell dispersion was filtered through a 40-μm nylon mesh (Cell Strainer) to remove the cell mass, thereby obtaining a neuronal cell suspension. The neuronal cell suspension was diluted with the medium, and 10% inactivated bovine serum (26140-079, Thermo Fisher Scientific) and 10% inactivated horse serum were added. Thereafter, 100 μL/well of the suspension was seeded in a 96-well plate (354461, CORNING) pre-coated with poly-D-lysine so that the initial culture density was 1.2×10^5 cells/cm^2. After the seeded cells were cultured under 5% CO2-95% air in a 37° C. incubator for 2 days, the entire medium was replaced with 120 μL of fresh medium, and the cells were subsequently cultured for 5 days.
On the 7th day of culture, compounds were added in the following manner. A solution of the test compound in DMSO was diluted with the medium so that the concentration was 10 times higher than the final concentration. Nerve Growth Factor (450-01, PEPRO TECH, INC.) was prepared at […]. These two solutions were added each in an amount of 15 μL/well, and the mixture was mixed well. The final DMSO concentration was 0.1% or less. Moreover, only DMSO and NGF were added to the control group.
(3) ACh Release Measurement
One day after the compound addition, an amount of ACh release was measured by HPLC in the following manner. A warmed buffer was added at 100 μL/well to the well after the medium was eliminated, and the buffer was immediately removed. Thereafter, a buffer to which 10 μm choline, 10 μm physostigmine, and 6 mM KCl were added was added at 120 μL/well. The buffer was prepared by adding 125 mM NaCl, 25 mM 4-(2-hydroxyethyl)-1-piperazineethanesulfonic acid, 1.2 mM KH2PO4, 1.2 mM MgSO4, 2.2 mM CaCl2 (2H2O), and 10 mM glucose to sterilized water, and the final pH of the solution was set to 7.4. After the 96-well plate to which the buffer was added was incubated under 5% CO2-95% air in a 37° C. incubator for 40 minutes, 80 μL of buffer was collected. An internal standard solution IPHC (5×10^−7 M) was added in an amount of 6 μL to the collected buffer, and the buffer was transferred to a tube for HPLC measurement and subjected to HPLC measurement. […]

Row | SMILES | change in vivo at 3 mg/kg [1] [%] | minimal effective concentration [2] [µM] | change in vivo at 1 mg/kg [1] [%] | change in vivo at 10 mg/kg ([1]; 10 mg/kg orally) [%] | change in vivo at 0.3 mg/kg ([1]; 0.3 mg/kg orally) [%]
1 | CN1Cc2nc3c(oc4ccccc43)c(=O)n2[C@@H]2CN(CCF)C[C@H]2C1=O (relative stereo) [Example 17, (−)-(3a,14a-trans)-2-(2-fluoroethyl)-5-methyl-2,3,3a,5,6,14a-hexahydro-1H-benzofuro[3′,2′:4,5]pyrimido[1,2-a]pyrrolo[3,4-f][1,4]diazepine-4,13-dione] | 44.6 | 0.03 | – | – | –
2 | CN1CCc2c(sc3nc4n(c(=O)c23)C(C)(C)CC(=O)N2CCCC42)C1 (single isomer, unassigned; (+)) [Example 2, (+)-7,7,12-trimethyl-1,2,3,6,7,10,11,12,13,15b-decahydropyrido[4″,3″:4′,5′]thieno[2′,3′:4,5]pyrimido[1,2-a]pyrrolo[2,1-c][1,4]diazepine-5,9-dione] | 53.6 | 0.03 | – | – | –
3 | COCCN1CCc2c(sc3nc4n(c(=O)c23)C(C)(C)CC(=O)N2CCCC42)C1 (single isomer, unassigned; (-)) [Example 13, (−)-12-(2-methoxyethyl)-7,7-dimethyl-1,2,3,6,7,10,11,12,13,15b-decahydro-5H,9H-pyrido[4″,3″:4′,5′]thieno[2′3′:4,5]pyrimido[1,2-a]pyrrolo[2,1-c][1,4]diazepine-5,9-dione] | – | 0.03 | 59.7 | – | –
4 | CN1Cc2nc3c(oc4ccccc43)c(=O)n2[C@@H]2CCC[C@@H]2C1=O [Example 1, (3aS,14aR)-5-methyl-3,3a,5,6-tetrahydro-1H-benzofuro[3′,2′:4,5]pyrimido[1,2-a]cyclopenta[f][1,4]diazepine-4,13(2H,14aH)-dione] | – | 0.03 | – | 76 | –
5 | CN1Cc2nc3c(oc4cc(F)ccc43)c(=O)n2[C@@H]2CCC[C@@H]2C1=O [Example 3, (3aS,14aR)-10-fluoro-5-methyl-3,3a,5,6-tetrahydro-1H-benzofuro[3′,2′:4,5]pyrimido[1,2-a]cyclopenta[f][1,4]diazepine-4,13(2H,14aH)-dione] | – | 0.03 | 53.7 | – | –
6 | Cc1cc(C)c2c(n1)oc1c(=O)n3c(nc12)CN(C)C(=O)[C@H]1CCC[C@H]13 [Example 4, (3aS,14aR)-5,8,10-trimethyl-3,3a,5,6-tetrahydro-1H-cyclopenta[f]pyrido[3″,2″:4′,5′]furo[3′,2′:4,5]pyrimido[1,2-a][1,4]diazepine-4,13(2H,14aH)-dione] | – | 0.1 | 51.5 | – | –
7 | CN1Cc2nc3c(oc4cc(F)ccc43)c(=O)n2[C@@H]2CCC[C@H]2C1=O [Example 5, (3aR,14aR)-10-fluoro-5-methyl-3,3a,5,6-tetrahydro-1H-benzofuro[3′,2′:4,5]pyrimido[1,2-a]cyclopenta[f][1,4]diazepine-4,13(2H,14aH)-dione] | – | 0.03 | 54.1 | – | –
8 | CN1Cc2nc3c(oc4cc(C(F)(F)F)ccc43)c(=O)n2[C@@H]2CCC[C@H]2C1=O [Example 6] | – | 0.03 | – | – | 67.7
9 | CN1Cc2nc3sc4c(c3c(=O)n2[C@@H]2CCC[C@@H]2C1=O)CCN(CC(F)F)C4 [Example 7, (3aS,14aR)-10-(2,2-difluoroethyl)-5-methyl-2,3,3a,5,6,9,10,11,12,14a-decahydro-1H-cyclopenta[f]pyrido[4″,3″:4′,5′]thieno[2′,3′:4,5]pyrimido[1,2-a][1,4]diazepine-4,13-dione] | 76.6 | 0.3 | – | – | –
10 | COCCN1CCc2c(sc3nc4n(c(=O)c23)[C@@H]2CCC[C@@H]2C(=O)N(C)C4)C1 [Example 8] | 71.8 | 0.03 | – | – | –
11 | CN1Cc2nc3c(oc4cc(C(F)F)ccc43)c(=O)n2[C@@H]2CCC[C@@H]2C1=O [Example 9] | 112 | 0.03 | – | – | –
12 | CN1CCc2c(sc3nc4n(c(=O)c23)C(C)(C)CC(=O)N2C[C@H](F)C[C@H]42)C1 [Example 10, (2R,15bR)-2-fluoro-7,7,12-trimethyl-1,2,3,6,7,10,11,12,13,15b-decahydro-5H,9H-pyrido[4″,3″:4′,5′]thieno[2′3′:4,5]pyrimido[1,2-a]pyrrolo[2,1-c][1,4]diazepine-5,9-dione] | – | 0.03 | 50.6 | – | –
13 | CN1CCc2c(sc3nc4n(c(=O)c23)[C@H]2COC[C@H]2C(=O)N(C)C4)C1 [Example 11, (+)-(3a,14a-cis)-5,10-dimethyl-1,3,3a,5,6,9,10,11,12,14a-decahydrofuro[3,4-f]pyrido[4″,3″:4′,5′]thieno[2′,3′:4,5]pyrimido[1,2-a][1,4]diazepine-4,13-dione] | – | 0.03 | 54.7 | – | –
14 | CN1Cc2nc3c(oc4cc(C(F)(F)F)ccc43)c(=O)n2[C@H]2CCC[C@@H]2C1=O [Example 12, (3aS,14aS)-5-methyl-10-(trifluoromethyl)-2,3,3a,5,6,14a-hexahydro-1H-benzofuro[3′,2′:4,5]pyrimido[1,2-a]cyclopenta[f][1,4]diazepine-4,13-dione] | – | 0.03 | 44.7 | – | –
15 | CN1CCc2sc3c(=O)n4c(nc3c2C1)CN(C)C(=O)[C@@H]1CCC[C@H]14 [Example 14, (3aR,14aR)-5,9-dimethyl-2,3,3a,5,6,8,9,10,11,14a-decahydro-1H-cyclopenta[f]pyrido[3″,4″:4′,5′]thieno[3′,2′:4,5]pyrimido[1,2-a][1,4]diazepine-4,13-dione] | – | 0.03 | 63.6 | – | –

— US11358972B2, “Pentacyclic heterocycles” (Eisai R&D Management Co., Ltd., priority 2019, dated 2022)
